Where a name gives a salt, the structure may show the parent alone.
Legend:
Format in all cases: cell-based, human
[1] = system: MOLM-14 (acute myeloid leukemia) cell line; assay: CellTiter-Glo luminescent cell viability assay, MOLM-14; settings: Homo sapiens; for viability at 4 µM: MOLM-14, compound at 4 μM; for viability at 4 µM / viability at 10 µM: 72 h; for viability at 10 µM: MOLM-14, compound at 10 μM; for EC50: MOLM-14 cell line, 72 h incubation, CellTiter-Glo, read-out: EC50, growth inhibition of MOLM-14
Outline: (§1)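 In a 72 h viability assay, compound-treated cells were compared against matched H2O or DMSO diluent controls by luminescence, points in at least duplicate.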

[2] = system: HepG2 (hepatocellular carcinoma) cell line; assay: CellTiter-Glo luminescent cell viability assay, HepG2; settings: Homo sapiens; for viability at 4 µM / viability at 10 µM: HepG2, HepG, 72 h; for viability at 4 µM: compound at 4 μM; for viability at 10 µM: compound at 10 μM; for EC50: HepG2 cell line, 72 h incubation, CellTiter-Glo, read-out: EC50, growth inhibition of HepG2
Outline: as §1

[3] = system: 786-O (renal adenocarcinoma) cell line; assay: CellTiter-Glo luminescent cell viability assay, 786-O; settings: Homo sapiens, 786-0; for viability at 4 µM / viability at 10 µM: 786-O, 72 h; for viability at 4 µM: compound at 4 μM; for viability at 10 µM: compound at 10 μM; for EC50: 786-O cell line, 72 h incubation, CellTiter-Glo, read-out: EC50, growth inhibition of 786-O
Outline: (§2)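 Luminescent signal, normalised to diluent-treated cultures, defines % viability; EC50 is the concentration lowering it to 50%. Cells had been exposed to compound for 72 h at 37 °C in medium with 10% FBS, at a constant H2O or DMSO percentage.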

[4] = system: HCT-116 (colorectal carcinoma) cell line; assay: CellTiter-Glo luminescent cell viability assay, HCT-116; settings: Homo sapiens; for viability at 4 µM: HCT-116, compound at 4 μM; for viability at 4 µM / viability at 10 µM: 72 h; for viability at 10 µM: HCT-116, compound at 10 μM; for EC50: HCT-116 cell line, 72 h incubation, CellTiter-Glo, read-out: EC50, growth inhibition of HCT-116
Outline: as §2

[5] = system: Huh7 (hepatocellular carcinoma) cell line; assay: CellTiter-Glo luminescent cell viability assay, Huh7; settings: Homo sapiens, Huh-7; for viability at 4 µM: Huh7, compound at 4 μM; for viability at 4 µM / viability at 10 µM: 72 h; for viability at 10 µM: Huh7, compound at 10 μM; for EC50: Huh7 cell line, 72 h incubation, CellTiter-Glo, read-out: EC50, growth inhibition of Huh7
Outline: as §1

[6] = system: A375 (malignant melanoma) cell line; assay: CellTiter-Glo luminescent cell viability assay, A375; settings: Homo sapiens, A-375; for viability at 4 µM: A375, compound at 4 μM; for viability at 4 µM / viability at 10 µM: 72 h; for viability at 10 µM: A375, compound at 10 μM; for EC50: A375 cell line, 72 h incubation, CellTiter-Glo, read-out: EC50, growth inhibition of A375
Outline: as §2

EC50 [1]	EC50 [2]	EC50 [3]	EC50 [4]	EC50 [5]	EC50 [6]	Structure (SMILES)	viability at 4 µM [1]	viability at 10 µM [1]	viability at 4 µM [2]	viability at 10 µM [2]	viability at 4 µM [3]	viability at 10 µM [3]	viability at 4 µM [4]	viability at 10 µM [4]	viability at 4 µM [5]	viability at 10 µM [5]	viability at 4 µM [6]	viability at 10 µM [6]
						N#Cc1c(NCc2ccc(Cl)cc2)nc2ccccc2c1N1CCC(Oc2ccccc2)C1 (stereo not drawn) [Compound 3330CN, 2-(4-chlorobenzylamino)-3-cyano-4-(3-phenoxypyrrolidin-1-yl)quinoline]	102%	93.6%	99.4%	80.4%	30.4%	19%	76.8%	49.7%	70.6%	33.7%	92.9%	82.4%
5 to 10 µM	0.5 to 5 µM	5 to 10 µM	0.5 to 5 µM	0.5 to 5 µM	5 to 10 µM	CNC(=O)C1CCN(c2cc(NCc3ccc(Cl)cc3)nc3ccccc23)CC1 [Compound 1598, 2-(4-chlorobenzylamino)-4-[4-(methylcarbamoyl)piperidin-1-yl]quinoline hydrochloride]												
						Cc1cc(OC2CCN(c3c(C#N)c(NCc4ccc(Cl)cc4)nc4ccccc34)CC2)no1 [Compound 2978CN, 2-(4-chlorobenzylamino)-3-cyano-4-{4-[(5-methylisoxazol-3-yl)oxy]piperidin-1-yl}quinoline]	115%	77.5%	94.5%	78.1%	96.9%	89.3%	88.2%	50.1%	87%	74.2%	93.1%	86.8%
0.5 to 5 µM	0.5 to 5 µM	0.5 to 5 µM	0.5 to 5 µM	0.5 to 5 µM	0.5 to 5 µM	Clc1ccc(CNc2cc(N3CC(N4CCCC4)C3)c3ccccc3n2)cc1 [Compound 116, 2-(4-chlorobenzylamino)-4-[3-(pyrrolidin-1-yl)azetidin-1-yl]quinoline hydrochloride]												
						COc1ccc(OC2CCN(c3c(C#N)c(NCc4ccc(Cl)cc4)nc4ccccc34)CC2)cc1 [Compound 3224CN, 2-(4-chlorobenzylamino)-3-cyano-4-[4-(4-methoxyphenoxy)piperidin-1-yl]quinoline]	112%	94.6%	91.6%	70%	96.3%	88.9%	89.8%	65.1%	116%	90%	96%	91.7%
						CC(C)(C)NC1CCN(c2c(C#N)c(Nc3ccc(OC(F)(F)F)cc3)nc3ccccc23)CC1 [Compound 3266CN, 2-[4-(trifluoromethyloxy)phenylamino]-3-cyano-4-[4-(tert-butylamino)piperidin-1-yl]quinoline]	91.4%	50.3%	60.6%	24.9%	28.1%	3.8%	17.7%	4.7%	78%	49.1%	48.1%	21.1%
						N#Cc1c(NCc2ccc(Cl)cc2)nc2ccccc2c1N1CCC(Oc2ccc(Cl)cc2)CC1 [Compound 3226CN, 2-(4-chlorobenzylamino)-3-cyano-4-[4-(4-chlorophenoxy)piperidin-1-yl]quinoline]	101%	97.8%	94%	82.8%	96%	89.8%	96.8%	86.8%	117%	109%	97.8%	94.1%
